For 31 molecules, IC50 results are on record in US12059420B2 (BRISTOL-MYERS SQUIBB COMPANY, priority 2018, dated 2024).

Counter-ions that a name gives are not always drawn.

T1 sequence (P14902 whole entry): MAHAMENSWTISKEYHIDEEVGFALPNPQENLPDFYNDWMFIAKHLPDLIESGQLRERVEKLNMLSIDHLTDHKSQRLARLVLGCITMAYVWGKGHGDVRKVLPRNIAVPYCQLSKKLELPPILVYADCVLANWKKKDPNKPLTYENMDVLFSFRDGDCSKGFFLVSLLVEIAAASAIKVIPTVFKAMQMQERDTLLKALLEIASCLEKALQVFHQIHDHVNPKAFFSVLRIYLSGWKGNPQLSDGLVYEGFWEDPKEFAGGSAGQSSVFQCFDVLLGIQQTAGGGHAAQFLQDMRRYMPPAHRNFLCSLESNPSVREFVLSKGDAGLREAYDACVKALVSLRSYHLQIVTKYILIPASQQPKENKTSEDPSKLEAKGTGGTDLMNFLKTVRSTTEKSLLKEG

This experiment addresses T1, human IDO1 (Homo sapiens, UniProt P14902).
T1 construct: expressed in transfected cells
Description: IDO inhibition assay in HEK293 cells stably expressing human IDO1 (kynurenine production, Ehrlich reagent, absorbance 490 nm). To be noted: 20 hours incubation with compound, 500 nM reference standard = 100% inhibition, read-out: IDO1 HEK Human IC50. It is filed as cell-based. In short, it runs like this:
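HEK293 clones stably expressing human IDO1 (10,000 cells/well, phenol red-free RPMI, 10% FBS) were treated with compound for 20 hours at 37° C. After 0.2% TCA and 30 min at 50° C., kynurenine was read with Ehrlich reagent at 490 nm. IC50 was normalised to DMSO (0%) and 500 nM reference standard (100%).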
In the case of `Cc1ccc(CC(=O)Nc2cc(-c3ccccc3-c3nnn[nH]3)nc(N(Cc3ccccc3)CC(C)C)c2)cc1` [Example 87, N-(2-(2-(1H-tetrazol-5-yl)phenyl)-6-(benzyl(isobutyl)amino)pyridin-4-yl)-2-(p-tolyl)acetamide, TFA], the concentration for half-maximal inhibition (IC50) was found to be 0.0407 µM.
Regarding `CCCN(Cc1ccccc1)c1cc(NC(=O)Nc2ccccc2F)cc(-c2cc(C)ccc2-c2nnn[nH]2)n1` [Example 88, 1-(2-(benzyl(propyl)amino)-6-(5-methyl-2-(1H-tetrazol-5-yl)phenyl)pyridin-4-yl)-3-(2-fluorophenyl)urea, TFA], the IC50 was found to be 0.109 µM.
Then `Cc1ccc(CC(=O)Nc2cc(-c3cc(F)ccc3-c3nnn[nH]3)nc(N(Cc3ccccc3)CC(C)C)c2)cc1` [Example 89, N-(2-(benzyl(isobutyl)amino)-6-(5-fluoro-2-(1H-tetrazol-5-yl)phenyl)pyridin-4-yl)-2-(p-tolyl)acetamide, TFA], with 0.15 µM; and `Cc1ccc(CC(=O)Nc2cc(-c3ccccc3-c3nnn[nH]3)nc(N(Cc3ccc(F)cc3)CC(C)C)c2)cc1` [Example 90, N-(2-(2-(1H-tetrazol-5-yl)phenyl)-6-((4-fluorobenzyl)(isobutyl)amino)pyridin-4-yl)-2-(p-tolyl)acetamide, TFA], with 0.0409 µM; and `Cc1ccc(CC(=O)Nc2cc(-c3ccccc3-c3nnn[nH]3)nc(N(Cc3ncccn3)CC(C)C)n2)cc1` [Example 92, N-(6-(2-(1H-tetrazol-5-yl)phenyl)-2-(isobutyl(pyrimidin-2-ylmethyl)amino)pyrimidin-4-yl)-2-(p-tolyl)acetamide], with 0.146 µM.
Then `Cc1ccc(NC(=O)Nc2cc(-c3ccccc3-c3nnn[nH]3)nc(N3CCc4ccccc4C3)n2)cc1` [Example 93, 1-(6-(2-(1H-tetrazol-5-yl)phenyl)-2-(3,4-dihydroisoquinolin-2(1H)-yl)pyrimidin-4-yl)-3-(p-tolyl)urea], with 3.17 µM.
Take `Cc1ccc(CC(=O)Nc2cc(-c3ccccc3-c3nnn[nH]3)nc(N3CCc4ccccc4C3)n2)cc1` [Example 94, N-(6-(2-(1H-tetrazol-5-yl)phenyl)-2-(3,4-dihydroisoquinolin-2(1H)-yl)pyrimidin-4-yl)-2-(p-tolyl)acetamide]: the IC50 amounted to 0.26 µM.
Then `CC(C)c1ccc(CC(=O)Nc2cc(-c3ccccc3-c3nnn[nH]3)nc(N3CCc4ccccc4C3)n2)cc1` [Example 95, N-(6-(2-(1H-tetrazol-5-yl)phenyl)-2-(3,4-dihydroisoquinolin-2(1H)-yl)pyrimidin-4-yl)-2-(4-isopropylphenyl)acetamide], with 1.39 µM.
The same measure for `Cc1ccc(CC(=O)Nc2cc(-c3ccccc3-c3nnn[nH]3)nc(N3CCN(Cc4ccccc4)C(=O)C3)n2)cc1` [Example 97, N-(6-(2-(1H-tetrazol-5-yl)phenyl)-2-(4-benzyl-3-oxopiperazin-1-yl)pyrimidin-4-yl)-2-(p-tolyl)acetamide]: 1.15 µM; for `Cc1ccc(NC(=O)Nc2cc(-c3ccccc3-c3nnn[nH]3)nc(N3C[C@@H]4C[C@H]3CN4Cc3ccccc3)n2)cc1` [Example 98, 1-(6-(2-(1H-tetrazol-5-yl)phenyl)-2-((1 S,4S)-5-benzyl-2,5-diazabicyclo [2.2.1]heptan-2-yl)pyrimidin-4-yl)-3-(p-tolyl)urea]: 0.846 µM; for `CCN(CCC(F)(F)F)c1nc(NC(=O)Nc2ccc(C)cc2)cc(-c2ccccc2-c2nnn[nH]2)n1` [Example 99, 1-(6-(2-(1H-tetrazol-5-yl)phenyl)-2-(ethyl(3,3,3-trifluoropropyl)amino)pyrimidin-4-yl)-3-(p-tolyl)urea]: 3.66 µM.
In the case of `CCN(CCC(F)(F)F)c1nc(NC(=O)Cc2ccc(C)cc2)cc(-c2ccccc2-c2nnn[nH]2)n1` [Example 100, N-(6-(2-(1H-tetrazol-5-yl)phenyl)-2-(ethyl(3,3,3-trifluoropropyl)amino)pyrimidin-4-yl)-2-(p-tolyl)acetamide], the concentration for half-maximal inhibition (IC50) was 0.127 µM.
The same measure for `CCN(CCC(F)(F)F)c1cc(NC(=O)Cc2ccc(C)cc2)cc(-c2ccccc2-c2nnn[nH]2)n1` [Example 101, N-(2-(2-(1H-tetrazol-5-yl)phenyl)-6-(ethyl(3,3,3-trifluoropropyl)amino)pyridin-4-yl)-2-(p-tolyl)acetamide]: 0.514 µM; for `CC(C)CN(Cc1ccccc1)c1nc(Nc2nc3ccccc3o2)cc(-c2ccccc2-c2nnn[nH]2)n1` [Example 102, 6-(2-(1H-tetrazol-5-yl)phenyl)-N4-(benzo [d]oxazol-2-yl)-N2-benzyl-N2-isobutylpyrimidine-2,4-diamine]: 0.0086 µM.
As to `CCCN(c1cc(NC(=O)Nc2ccc(C)cc2)cc(-c2ccccc2-c2nnn[nH]2)n1)C1CCOCC1` [Example 109, 1-(2-(2-(1H-tetrazol-5-yl)phenyl)-6-(propyl(tetrahydro-2H-pyran-4-yl)amino)pyridin-4-yl)-3-(p-tolyl)urea], the IC50 is 4.12 µM.
The same measure for `COCCN(c1cc(NC(=O)Nc2ccc(F)cc2)cc(-c2ccccc2-c2nnn[nH]2)n1)C1CCC(F)(F)CC1` [Example 114, 1-(2-(2-(1H-tetrazol-5-yl)phenyl)-6-((4,4-difluorocyclohexyl)(2-methoxyethyl)amino)pyridin-4-yl)-3-(4-fluorophenyl)urea]: 6 µM; for `CCCN(c1cc(NC(=O)Nc2ccc(C)cc2)cc(-c2ccccc2-c2nnn[nH]2)n1)C1CCC(C)(C)CC1` [Example 119, 1-(2-(2-(1H-tetrazol-5-yl)phenyl)-6-((4,4-dimethylcyclohexyl) (propyl)amino)pyridin-4-yl)-3-(p-tolyl)urea]: 2.01 µM.
The same measure for `Cc1ccc(CC(=O)Nc2cc(-c3ccccc3-c3nnn[nH]3)nc(N3CC(C)OC(C)C3)c2)cc1` (stereo not shown) [Example 125, N-(2-(2-(1H-tetrazol-5-yl)phenyl)-6-(2,6-dimethylmorpholino)pyridin-4-yl)-2-(p-tolyl)acetamide]: 1.11 µM.
Regarding `Cc1ccc(CC(=O)Nc2cc(-c3ccccc3-c3nnn[nH]3)nc(N3CCCC(C)C3)c2)cc1` (stereo not shown) [Example 126, N-(2-(2-(1H-tetrazol-5-yl)phenyl)-6-(3-methylpiperidin-1-yl)pyridin-4-yl)-2-(p-tolyl)acetamide], the 50% inhibitory concentration (IC50) was determined as 2 µM.
Then `Cc1ccc(CC(=O)Nc2cc(-c3ccccc3-c3nnn[nH]3)nc(N3CCCCCC3)c2)cc1` [Example 127, N-(2-(2-(1H-tetrazol-5-yl)phenyl)-6-(azepan-1-yl)pyridin-4-yl)-2-(p-tolyl)acetamide], with 1.05 µM.
Then `Cc1ccc(CC(=O)Nc2cc(-c3ccccc3-c3nnn[nH]3)nc(N3CCCC3C)c2)cc1` (stereo not shown) [Example 128, N-(2-(2-(1H-tetrazol-5-yl)phenyl)-6-(2-methylpyrrolidin-1-yl)pyridin-4-yl)-2-(p-tolyl)acetamide], with 1.8 µM; and `COc1ccccc1N1CCN(c2cc(NC(=O)Cc3ccc(C)cc3)cc(-c3ccccc3-c3nnn[nH]3)n2)CC1` [Example 129, N-(2-(2-(1H-tetrazol-5-yl)phenyl)-6-(4-(2-methoxyphenyl)piperazin-1-yl)pyridin-4-yl)-2-(p-tolyl)acetamide], with 1.25 µM; and `Cc1ccc(CC(=O)Nc2cc(-c3ccccc3-c3nnn[nH]3)nc(N3CCCC3)c2)cc1` [Example 131, N-(2-(2-(1H-tetrazol-5-yl)phenyl)-6-(pyrrolidin-1-yl)pyridin-4-yl)-2-(p-tolyl)acetamide], with 1.6 µM.
`Cc1ccc(CC(=O)Nc2cc(-c3ccccc3-c3nnn[nH]3)nc(N3CCc4ccccc4C3)c2)cc1` [Example 132, N-(2-(2-(1H-tetrazol-5-yl)phenyl)-6-(3,4-dihydroisoquinolin-2(1H)-yl)pyridin-4-yl)-2-(p-tolyl)acetamide]: the IC50 amounted to 0.52 µM.
The same measure for `Cc1ccc(CC(=O)Nc2cc(-c3ccccc3-c3nnn[nH]3)nc(N3CCCC(C)(C)C3)c2)cc1` [Example 135, N-(2-(2-(1H-tetrazol-5-yl)phenyl)-6-(3,3-dimethylpiperidin-1-yl)pyridin-4-yl)-2-(p-tolyl)acetamide]: 1.24 µM; for `Cc1cncc(Nc2cc(-c3ccccc3-c3nnn[nH]3)nc(N(Cc3ccccc3)CC(C)C)c2)n1` [Example 136, 6-(2-(1H-tetrazol-5-yl)phenyl)-N2-benzyl-N2-isobutyl-N4-(6-methylpyrazin-2-yl)pyridine-2,4-diamine]: 0.078 µM; for `CC(C)CN(Cc1ccccc1)c1cc(Nc2cccc(CO)n2)cc(-c2ccccc2-c2nnn[nH]2)n1` [Example 137, (6-((2-(2-(1H-tetrazol-5-yl)phenyl)-6-(benzyl(isobutyl)amino)pyridin-4-yl)amino)pyridin-2-yl)methanol]: 0.0487 µM.
Then `CC(C)CN(Cc1ccccc1)c1cc(Nc2ccc3c(c2)OCO3)cc(-c2ccccc2-c2nnn[nH]2)n1` [Example 138, 6-(2-(1H-tetrazol-5-yl)phenyl)-N4-(benzo[d][1,3]dioxol-5-yl)-N2-benzyl-N2-isobutylpyridine-2,4-diamine], with 0.012 µM; and `CC(C)CN(Cc1ccccc1)c1cc(Nc2ccncc2F)cc(-c2ccccc2-c2nnn[nH]2)n1` [Example 139, 6-(2-(1H-tetrazol-5-yl)phenyl)-N2-benzyl-N4-(3-fluoropyridin-4-yl)-N2-isobutylpyridine-2,4-diamine], with 0.0234 µM.
Turning to `Cc1nccc(Nc2cc(-c3ccccc3-c3nnn[nH]3)nc(N(Cc3ccccc3)CC(C)C)c2)n1` [Example 140, 6-(2-(1H-tetrazol-5-yl)phenyl)-N2-benzyl-N2-isobutyl-N4-(2-methylpyrimidin-4-yl)pyridine-2,4-diamine], the 50% inhibitory concentration (IC50) was 0.142 µM.
Then `CC(C)CN(Cc1ccccc1)c1cc(Nc2ncccn2)cc(-c2ccccc2-c2nnn[nH]2)n1` [Example 141, 6-(2-(1H-tetrazol-5-yl)phenyl)-N2-benzyl-N2-isobutyl-N4-(pyrimidin-2-yl)pyridine-2,4-diamine], with 0.0396 µM.

What is called IC50 is the concentration at which inhibition is half-maximal.
